Data: doi:10.1101/2020.08.28.272054v2 (biorxiv, 2021)

Columns and labels:
Assay in all cases: ATPase activity, photometric phosphate release, Sf9 membranes
Assay type in all cases: biochemical
αCβ1 = αCβ1 (Oncopeltus fasciatus, UniProt A0A8S4MUF7)
αCβ3 = αCβ3 (Oncopeltus fasciatus, UniProt A0A8S4MUF7)
αCβ2 = αCβ2 (Oncopeltus fasciatus, UniProt A0A8S4MUF7)
αCβ2, sequence (A0A8S4MUF7 1-1007): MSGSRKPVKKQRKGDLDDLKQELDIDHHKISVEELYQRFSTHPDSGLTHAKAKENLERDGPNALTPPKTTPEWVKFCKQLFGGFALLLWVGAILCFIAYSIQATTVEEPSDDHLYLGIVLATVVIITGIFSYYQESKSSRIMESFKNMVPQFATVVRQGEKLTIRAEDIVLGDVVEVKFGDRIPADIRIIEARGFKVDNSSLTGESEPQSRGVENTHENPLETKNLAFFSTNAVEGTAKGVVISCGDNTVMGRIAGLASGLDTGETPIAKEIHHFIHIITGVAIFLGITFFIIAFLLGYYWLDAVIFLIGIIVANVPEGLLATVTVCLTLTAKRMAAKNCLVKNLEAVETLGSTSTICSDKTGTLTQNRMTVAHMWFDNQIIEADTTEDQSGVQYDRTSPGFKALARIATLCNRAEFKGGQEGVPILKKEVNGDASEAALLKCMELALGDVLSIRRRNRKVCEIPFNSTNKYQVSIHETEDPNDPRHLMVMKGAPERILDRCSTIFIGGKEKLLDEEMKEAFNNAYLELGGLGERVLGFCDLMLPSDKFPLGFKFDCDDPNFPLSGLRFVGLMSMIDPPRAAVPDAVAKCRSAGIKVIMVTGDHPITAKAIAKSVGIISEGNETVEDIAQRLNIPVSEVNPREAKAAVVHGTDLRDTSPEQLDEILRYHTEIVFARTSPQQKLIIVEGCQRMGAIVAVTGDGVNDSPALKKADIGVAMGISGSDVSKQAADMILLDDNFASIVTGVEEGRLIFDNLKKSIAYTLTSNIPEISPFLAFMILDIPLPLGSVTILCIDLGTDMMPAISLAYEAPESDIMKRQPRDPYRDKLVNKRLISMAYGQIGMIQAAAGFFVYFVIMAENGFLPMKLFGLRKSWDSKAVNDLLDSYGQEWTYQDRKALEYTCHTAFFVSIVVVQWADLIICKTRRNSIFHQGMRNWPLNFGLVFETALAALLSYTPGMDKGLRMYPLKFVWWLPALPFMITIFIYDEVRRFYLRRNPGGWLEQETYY
αCβ2, sequence (A0A8S4MTQ8 1-322 partner): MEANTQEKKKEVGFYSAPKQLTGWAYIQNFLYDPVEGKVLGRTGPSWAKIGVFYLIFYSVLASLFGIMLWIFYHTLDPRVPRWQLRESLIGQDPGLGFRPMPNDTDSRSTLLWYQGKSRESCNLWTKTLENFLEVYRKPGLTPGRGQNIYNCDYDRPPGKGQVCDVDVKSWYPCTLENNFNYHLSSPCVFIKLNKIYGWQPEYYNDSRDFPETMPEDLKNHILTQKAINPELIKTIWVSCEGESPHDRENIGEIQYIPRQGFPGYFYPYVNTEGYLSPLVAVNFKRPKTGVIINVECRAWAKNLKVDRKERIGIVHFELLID

αCβ1, sequence (A0A8S4MUF7 1-1007): as the sequence (A0A8S4MUF7 1-1007) above
αCβ1, sequence (A0A8S4MTC7 1-330 partner): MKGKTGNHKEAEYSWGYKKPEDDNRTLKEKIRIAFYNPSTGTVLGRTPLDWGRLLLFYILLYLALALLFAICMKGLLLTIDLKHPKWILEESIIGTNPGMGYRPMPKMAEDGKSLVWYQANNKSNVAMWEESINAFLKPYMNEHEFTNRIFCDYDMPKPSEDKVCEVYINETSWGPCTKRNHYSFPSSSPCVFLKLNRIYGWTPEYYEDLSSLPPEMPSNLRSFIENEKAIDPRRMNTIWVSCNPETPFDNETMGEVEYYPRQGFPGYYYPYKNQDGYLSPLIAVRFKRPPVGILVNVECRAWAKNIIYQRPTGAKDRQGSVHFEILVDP
αCβ3, sequence (A0A8S4MUF7 1-1007): as the sequence (A0A8S4MUF7 1-1007) above
αCβ3, sequence (A0A8S4MV14 1-314 partner): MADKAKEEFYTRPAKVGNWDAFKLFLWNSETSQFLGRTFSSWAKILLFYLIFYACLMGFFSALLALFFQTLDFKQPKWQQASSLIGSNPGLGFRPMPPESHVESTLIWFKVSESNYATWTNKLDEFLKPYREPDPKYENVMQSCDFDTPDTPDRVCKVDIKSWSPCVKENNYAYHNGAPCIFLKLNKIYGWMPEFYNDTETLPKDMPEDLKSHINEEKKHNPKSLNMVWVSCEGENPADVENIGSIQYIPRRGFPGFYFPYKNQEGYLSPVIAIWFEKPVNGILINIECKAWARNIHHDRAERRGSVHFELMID

**Q.** With `C[C@@H]1O[C@@H](O[C@H]2C[C@@H](O)[C@]3(CO)[C@H]4[C@H](O)C[C@]5(C)[C@@H](C6=CC(=O)OC6)CC[C@]5(O)[C@@H]4CC[C@]3(O)C2)[C@H](O)[C@H](O)[C@H]1O` [ouabain] as the molecule, how does the IC50 (αCβ1) read?
**A.** Its IC50 is 427 µM.

**Q.** And the IC50 (αCβ3)?
**A.** The IC50 was 758 µM.

**Q.** What about the IC50 (αCβ2) of the same molecule?
**A.** The IC50 was 737 µM.
